Experimental data: patent US20240158446A1, “CYCLIC COMPOUND HAVING SELECTIVE INHIBITORY ACTION ON KRAS OVER HRAS AND NRAS” (CHUGAI SEIYAKU KABUSHIKI KAISHA, priority 2021, published 2024)
Like-named read-outs stand apart in the source and are kept apart here. *1 amine or outer side, *2 acyl side, *3 side chain or, on linkers, in order; H or OH if unused. Where a SMILES comes first, the peptide text is derived from it. Bridges are numbered along the chain shown (N, C = ends). [ ]: non-standard residue; d: D form. The star is where a group is joined. hPhe(3,5-F2-4-CF3) = N[C@@H](CCc1cc(F)c(C(F)(F)F)c(F)c1)C(=O)O; hPhe(3-Cl-4-CF3) = N[C@@H](CCc1ccc(C(F)(F)F)c(Cl)c1)C(=O)O; NPrPhe(4-CF3) = CCCN[C@@H](Cc1ccc(C(F)(F)F)cc1)C(=O)O; X3 = CCCN([C@H](C(=O)[*:2])C1CCCC1)[*:1]; NMeGly(cPent) = CN[C@H](C(=O)O)C1CCCC1; X11 = CCC[C@](C)(N[*:1])C(=O)[*:2]; Hyp = O=C(O)[C@@H]1C[C@@H](O)CN1; NMeD = CN[C@@H](CC(=O)O)C(=O)O; NMeL = CN[C@@H](CC(C)C)C(=O)O; Morpholide = C1CN(*)CCO1; NMeA = CN[C@@H](C)C(=O)O; Ac5c = NC1(C(=O)O)CCCC1; Aze = O=C(O)[C@@H]1CCN1; Ac4c = NC1(C(=O)O)CCC1; Sar = CNCC(=O)O

What was measured:
[1] = molecular target: GDP-bound NRAS wild-type protein (Homo sapiens, UniProt P01111); assay: Binding to NRAS by surface plasmon resonance (SPR), Single Cycle Kinetics; conditions: SPR, GDP-bound NRAS wild-type protein vs GDP-bound KRAS wild-type protein
[2] = molecular target: GDP-bound KRAS wild-type protein (Homo sapiens, UniProt P01116); assay: Binding to KRAS by surface plasmon resonance (SPR), Single Cycle Kinetics; conditions: GDP-bound KRAS wild-type protein, read-out: KRAS KD
[3] = molecular target: GDP-bound HRAS wild-type protein (Homo sapiens, UniProt P01112); assay: Binding to HRAS by surface plasmon resonance (SPR), Single Cycle Kinetics; conditions: SPR, GDP-bound HRAS wild-type protein vs GDP-bound KRAS wild-type protein
[4] = SPR Single Cycle Kinetics, 1:1 binding model

Chain of GDP-bound NRAS wild-type protein (P01111 whole entry): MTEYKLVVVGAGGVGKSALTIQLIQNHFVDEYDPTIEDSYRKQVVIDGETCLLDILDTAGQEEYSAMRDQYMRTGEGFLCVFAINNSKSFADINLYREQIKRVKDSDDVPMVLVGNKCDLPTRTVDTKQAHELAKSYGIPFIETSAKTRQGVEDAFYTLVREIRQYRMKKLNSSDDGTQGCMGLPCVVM
Chain of GDP-bound HRAS wild-type protein (P01112 whole entry): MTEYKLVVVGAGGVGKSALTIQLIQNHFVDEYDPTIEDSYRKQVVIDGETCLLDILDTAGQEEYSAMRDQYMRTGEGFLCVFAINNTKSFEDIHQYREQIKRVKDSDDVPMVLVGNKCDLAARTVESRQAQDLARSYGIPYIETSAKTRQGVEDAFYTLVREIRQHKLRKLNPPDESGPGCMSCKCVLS
Chain of GDP-bound KRAS wild-type protein (P01116 whole entry): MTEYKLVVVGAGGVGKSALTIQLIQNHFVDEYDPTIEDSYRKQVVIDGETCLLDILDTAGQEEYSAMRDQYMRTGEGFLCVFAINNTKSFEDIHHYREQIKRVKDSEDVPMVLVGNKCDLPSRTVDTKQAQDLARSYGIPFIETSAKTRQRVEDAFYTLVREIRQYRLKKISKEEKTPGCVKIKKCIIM

| SMILES | Kd ([2]; SPR, Single Cycle Kinetics) | Kd [2, 4] | NRAS/KRAS (ratio of KD value for NRAS to KD value for KRAS) [1] | HRAS/KRAS (ratio of KD value for HRAS to KD value for KRAS) [3] | NRAS/KRAS (ratio of KD value with respect to NRAS to KD value with respect to KRAS) [1] | HRAS/KRAS (ratio of KD value with respect to HRAS to KD value with respect to KRAS) [3] |
| --- | --- | --- | --- | --- | --- | --- |
| CCO[C@@H]1C[C@H]2C(=O)NC3(CCC3)C(=O)N(C)[C@@H](C3CCCC3)C(=O)N(C)[C@H](C(=O)N(C)C)CC(=O)N(C)[C@@H](CC)C(=O)N[C@@H]([C@@H](C)CC)C(=O)N(C)CC(=O)N(C)[C@H]3C/C=C\CCN(C3=O)[C@@H](Cc3ccc(C(F)(F)F)cc3)C(=O)N(C)CC(=O)N[C@@H](CCc3cc(F)c(C(F)(F)F)c(F)c3)C(=O)N2C1 [PP0824, (2S,8S,12R,14S,20S,23S,27S,30S,36S,38Z)-20-cyclopentyl-8-[2-[3,5-difluoro-4-(trifluoromethyl)phenyl]ethyl]-12-ethoxy-27-ethyl-N,N,4,19,22,26,32,35-octamethyl-30-[(1S)-1-methylpropyl]-3,6,9,15,18,21,25,28,31,34,42-undecaoxo-2-[[4-(trifluoromethyl)phenyl]methyl]spiro[1,4,7,10,16,19,22,26,29,32,35-undecazatricyclo[34.5.1.0^10,14]dotetracont-38-ene-17,1′-cyclobutane]-23-carboxamide] | 0.055 nM | – | A (a compound having 10 or more and less than 20 is denoted as A) | A (a compound having 10 or more and less than 20 is denoted as A) | – | – |
| CCO[C@@H]1C[C@H]2C(=O)NC3(CCC3)C(=O)N(C)[C@@H](C(CC)CC)C(=O)N(C)[C@H](C(=O)N3CCCC3)CC(=O)N(C)[C@H]3CCCCC/C=C/c4ccc(cc4)C[C@@H](C(=O)N(C)CC(=O)N[C@@H](CCc4ccc(Cl)c(Cl)c4)C(=O)N2C1)N1CC/C=C\C[C@@H](C1=O)N(C)C(=O)CN(C)C(=O)[C@H]([C@@H](C)CC)NC3=O [PP3052] | 0.26 nM | – | AA (a compound having 20 or more is denoted as AA) | A (a compound having 10 or more and less than 20 is denoted as A) | – | – |
| C#CC[C@H]1C(=O)N[C@@H]([C@@H](C)CC)C(=O)N(C)CC(=O)N(C)[C@H]2C/C=C\CCN(C2=O)[C@@H](Cc2ccc(C(F)(F)F)cc2)C(=O)N(C)CC(=O)N[C@@H](CCc2cc(F)c(C(F)(F)F)c(F)c2)C(=O)N2C[C@H](OCC)C[C@H]2C(=O)NC2(CCC2)C(=O)N(C)[C@@H](C2CCCC2)C(=O)N(C)[C@H](C(=O)N(C)C)CC(=O)N1C [PP1115, (2S,8S,12R,14S,20S,23S,27S,30S,36S,38Z)-20-cyclopentyl-8-[2-[3,5-difluoro-4-(trifluoromethyl)phenyl]ethyl]-12-ethoxy-N,N,4,19,22,26,32,35-octamethyl-30-[(1S)-1-methylpropyl]-3,6,9,15,18,21,25,28,31,34,42-undecaoxo-27-prop-2-ynyl-2-[[4-(trifluoromethyl)phenyl]methyl]spiro[1,4,7,10,16,19,22,26,29,32,35-undecazatricyclo[34.5.1.0^10,14]dotetracont-38-ene-17,1′-cyclobutane]-23-carboxamide] | 0.054 nM | – | A (a compound having 10 or more and less than 20 is denoted as A) | A (a compound having 10 or more and less than 20 is denoted as A) | – | – |
| CC[C@H](C)[C@@H]1NC(=O)[C@H](CC(C)C)N(C)C(=O)C[C@@H](C(=O)N(C)C)N(CCC2CCCC2)C(=O)[C@H](C2CCCC2)N(C)C(=O)C2(CCC2)NC(=O)[C@@H]2CC(F)(F)CN2C(=O)[C@H](CCc2ccc(C(F)(F)F)c(Cl)c2)NC(=O)CN(C)C(=O)[C@H](Cc2ccc(F)cc2)N2CCCCC[C@@H](C2=O)N(C)C(=O)CN(C)C1=O [PP0977] | 7.7 nM | – | B (a compound having 3 or more and less than 10 is denoted as B) | A (a compound having 10 or more and less than 20 is denoted as A) | – | – |
| CCCN1C(=O)[C@@H]2CCN2C(=O)CN(C)C(=O)[C@H]([C@@H](C)CC)NC(=O)[C@H](CC(C)C)N(C)C(=O)C[C@@H](C(=O)N2CCOCC2)NC(=O)[C@H](C2CCCC2)N(C)C(=O)C2(CCC2)NC(=O)[C@@H]2C[C@@H](OCC)CN2C(=O)[C@H](CCc2ccc(C(F)(F)F)c(Cl)c2)NC(=O)CN(C)C(=O)[C@@H]1Cc1ccc(C(F)(F)F)cc1 [PP0354] ([NMeL]I[Sar][Aze][NPrPhe(4-CF3)][Sar][hPhe(3-Cl-4-CF3)][Hyp](Et)[Ac4c][NMeGly(cPent)]D-Morpholide; lactam N-11) | – | 0.44 nM | C (A compound having a KD ratio of 0.1 or more and less than 3 is denoted as C) | B (a compound having 3 or more and less than 10 is denoted as B) | – | – |
| CCCN1C(=O)[C@@H]2CCN2C(=O)[C@H](C)N(C)C(=O)[C@H]([C@@H](C)CC)NC(=O)[C@H](CC(C)C)N(C)C(=O)C[C@@H](C(=O)N(C)C)N(C)C(=O)[C@H](C2CCCC2)N(C)C(=O)C2(CCCC2)NC(=O)[C@@H]2CCCN2C(=O)[C@H](CCc2ccc(C(F)(F)F)c(Cl)c2)NC(=O)CN(C)C(=O)[C@@H]1Cc1ccc(C(F)(F)F)cc1 [PP0178] ([NMeL]I[NMeA][Aze][NPrPhe(4-CF3)][Sar][hPhe(3-Cl-4-CF3)]P[Ac5c][NMeGly(cPent)][NMeD]-NMe2; lactam N-11) | – | 0.073 nM | C (A compound having a KD ratio of 0.1 or more and less than 3 is denoted as C) | B (a compound having 3 or more and less than 10 is denoted as B) | – | – |
| CCCN1C(=O)CN(C)C(=O)CN(C)C(=O)[C@H]([C@@H](C)CC)NC(=O)[C@H](CC(C)C)N(C)C(=O)C[C@@H](C(=O)N2CCOCC2)N(C)C(=O)[C@H](C2CCCC2)N(C)C(=O)C2(CCCC2)NC(=O)[C@@H]2CCCN2C(=O)[C@H](CCc2ccc(C(F)(F)F)c(Cl)c2)NC(=O)CN(C)C(=O)[C@@H]1C1CCCC1 [PP0061] ([NMeL]I[Sar][Sar][X3][Sar][hPhe(3-Cl-4-CF3)]P[Ac5c][NMeGly(cPent)][NMeD]-Morpholide; lactam N-11) | – | 3.8 nM | B (a compound having 3 or more and less than 10 is denoted as B) | C (A compound having a KD ratio of 0.1 or more and less than 3 is denoted as C) | – | – |

Continued, in another order:

| Kd ([2]; SPR, Single Cycle Kinetics) | Kd [2, 4] | SMILES | NRAS/KRAS (ratio of KD value for NRAS to KD value for KRAS) [1] | HRAS/KRAS (ratio of KD value for HRAS to KD value for KRAS) [3] | NRAS/KRAS (ratio of KD value with respect to NRAS to KD value with respect to KRAS) [1] | HRAS/KRAS (ratio of KD value with respect to HRAS to KD value with respect to KRAS) [3] |
| --- | --- | --- | --- | --- | --- | --- |
| 0.1 nM | – | C=CC[C@H]1C(=O)N[C@@H]([C@@H](C)CC)C(=O)N(C)CC(=O)N(C)[C@H]2CCCCN(C2=O)[C@@H](Cc2ccc(C(F)(F)F)cc2)C(=O)N(C)CC(=O)N[C@@H](CCc2cc(F)c(C(F)(F)F)c(F)c2)C(=O)N2C[C@H](OCC)C[C@H]2C(=O)N[C@](C)(CC=C)C(=O)N(C)[C@@H](C2CCCC2)C(=O)N(C)[C@H](C(=O)N2CCOCC2)CC(=O)N1C [PP0874] | C (A compound having a KD ratio of 0.1 or more and less than 3 is denoted as C) | B (a compound having 3 or more and less than 10 is denoted as B) | – | – |
| – | 0.17 nM | CC[C@H](C)[C@@H]1NC(=O)[C@H](CC(C)C)N(C)C(=O)C[C@@H](C(=O)N2CCOCC2)N(CC)C(=O)[C@H](C2CCCC2)N(C)C(=O)C2(CCCC2)NC(=O)[C@@H]2CCCN2C(=O)[C@H](CCc2cc(F)c(C(F)(F)F)c(F)c2)NC(=O)CN(C)C(=O)[C@H](Cc2ccc(C(F)(F)F)cc2)N2CCCC[C@@H](C2=O)N(C)C(=O)CN(C)C1=O [PP0539] | – | – | B (a compound having 3 or more and less than 10 is denoted as B) | B (a compound having 3 or more and less than 10 is denoted as B) |
| 1.1 nM | – | CC[C@H](C)[C@@H]1NC(=O)[C@H](CC(C)C)N(C)C(=O)C[C@@H](C(=O)N2CCOCC2)N(C)C(=O)[C@H](C2CCCC2)N(C)C(=O)C2(CCC2)NC(=O)[C@@H]2C[C@@H](OCC3CC3)CN2C(=O)[C@H](CCc2cc(F)c(C(F)(F)F)c(F)c2)NC(=O)CN(C)C(=O)[C@H](Cc2ccc(C(F)(F)F)cc2)N2CCCCC[C@@H](C2=O)N(C)C(=O)CN(C)C1=O [PP1005] | A (a compound having 10 or more and less than 20 is denoted as A) | A (a compound having 10 or more and less than 20 is denoted as A) | – | – |
| – | 1.5 nM | CCCN1C(=O)[C@@H]2CCN2C(=O)CN(C)C(=O)[C@H]([C@@H](C)CC)NC(=O)[C@H](CC(C)C)N(C)C(=O)C[C@@H](C(=O)N2CCOCC2)N(C)C(=O)[C@H](C2CCCC2)N(C)C(=O)[C@](C)(CCC)NC(=O)[C@@H]2CCCN2C(=O)[C@H](CCc2cc(F)c(C(F)(F)F)c(F)c2)NC(=O)CN(C)C(=O)[C@@H]1Cc1ccc(C(F)(F)F)cc1 [PP0794] ([NMeL]I[Sar][Aze][NPrPhe(4-CF3)][Sar][hPhe(3,5-F2-4-CF3)]P[X11][NMeGly(cPent)][NMeD]-Morpholide; lactam N-11) | – | – | C (A compound having a KD ratio of 0.1 or more and less than 3 is denoted as C) | B (a compound having 3 or more and less than 10 is denoted as B) |
